In ChEMBL document CHEMBL3045826, “Synthesis of new derivatives of 2,2-dimethyl-2,3-dihydro-7-benzo[b]furanol with potential antimicrobial activity” (Med Chem Res, 2009):
Activity calls are given as the source filed them. The rule behind the calls is not given here.

Experiments:
Enterococcus hirae = test: Antibacterial activity against Enterococcus hirae ATCC 10541 at 400 ug after 18 hr by disk diffusion method; format: functional
Candida parapsilosis = test: Antifungal activity against Candida parapsilosis ATCC 22019 at 400 ug after 24 to 48 hr by disk diffusion method; format: functional
Escherichia coli [1] = test: Antibacterial activity against Escherichia coli NCTC 8196 at 400 ug after 18 hr by disk diffusion method; format: functional
Staphylococcus aureus [2] = test: Antibacterial activity against Staphylococcus aureus ATCC 29213 at 400 ug after 18 hr by disk diffusion method; format: functional
Candida albicans [3] = test: Antifungal activity against Candida albicans ATCC 90028 at 400 ug after 24 to 48 hr by disk diffusion method; format: functional
Staphylococcus aureus [4] = test: Antibacterial activity against Staphylococcus aureus NCTC 4163 at 400 ug after 18 hr by disk diffusion method; format: functional
[5] = Cytotoxicity against Homo sapiens (human) MT4 cells after 96 hr by MTT assay; format: cell-based
Pseudomonas aeruginosa [6] = test: Antibacterial activity against Pseudomonas aeruginosa ATCC 15442 at 400 ug after 18 hr by disk diffusion method; format: functional
Bacillus subtilis = test: Antibacterial activity against Bacillus subtilis ATCC 6633 at 400 ug after 18 hr by disk diffusion method; format: functional
Candida albicans [7] = test: Antifungal activity against Candida albicans ATCC 10231 at 400 ug after 24 to 48 hr by disk diffusion method; format: functional
Escherichia coli [8] = test: Antibacterial activity against Escherichia coli ATCC 25922 at 400 ug after 18 hr by disk diffusion method; format: functional
[9] = test system: Human immunodeficiency virus 1; test: Antiviral activity against Human immunodeficiency virus 1 infected human MT4 cells assessed as inhibition of virus-induced cytopathogenicity after 4 days by MTT assay; format: functional, organism-based; details: Human immunodeficiency virus 1, MT4, 96 h
Staphylococcus aureus [10] = test: Antibacterial activity against Staphylococcus aureus ATCC 6538P at 400 ug after 18 hr by disk diffusion method; format: functional
[11] = test system: Bordetella bronchiseptica; test: Antibacterial activity against Bordetella bronchiseptica ATCC 461 at 400 ug after 18 hr by disk diffusion method; format: functional
Pseudomonas aeruginosa [12] = test: Antibacterial activity against Pseudomonas aeruginosa NCTC 6749 at 400 ug after 18 hr by disk diffusion method; format: functional, organism-based
Escherichia coli [13] = test: Antibacterial activity against Escherichia coli ATCC 10538 at 400 ug after 18 hr by disk diffusion method; format: functional
Staphylococcus aureus [14] = test: Antibacterial activity against Staphylococcus aureus ATCC 25923 at 400 ug after 18 hr by disk diffusion method; format: functional
Proteus vulgaris = test: Antibacterial activity against Proteus vulgaris NCTC 4635 at 400 ug after 18 hr by disk diffusion method; format: functional

SMILES	diameter of the inhibition zone (DIZ) (Enterococcus hirae)	diameter of the inhibition zone (DIZ) (Candida parapsilosis)	diameter of the inhibition zone (DIZ) (Escherichia coli [1])	diameter of the inhibition zone (DIZ) (Staphylococcus aureus [2])	diameter of the inhibition zone (DIZ) (Candida albicans [3])	diameter of the inhibition zone (DIZ) (Staphylococcus aureus [4])	CC50 at 96 h [5] [µM]	diameter of the inhibition zone (DIZ) (Pseudomonas aeruginosa [6])	diameter of the inhibition zone (DIZ) (Bacillus subtilis)	diameter of the inhibition zone (DIZ) (Candida albicans [7])	diameter of the inhibition zone (DIZ) (Escherichia coli [8])	EC50 [9] [µM]	diameter of the inhibition zone (DIZ) (Staphylococcus aureus [10])	diameter of the inhibition zone (DIZ) [11]	diameter of the inhibition zone (DIZ) (Pseudomonas aeruginosa [12])	diameter of the inhibition zone (DIZ) (Escherichia coli [13])	diameter of the inhibition zone (DIZ) (Staphylococcus aureus [14])	diameter of the inhibition zone (DIZ) (Proteus vulgaris)
CC1(C)Cc2cccc(O)c2O1	inactive	inactive	inactive	inactive	inactive	inactive	100	inactive	inactive	inactive	inactive	> 100	inactive	inactive	inactive	inactive	inactive	inactive
CC1(C)Cc2c(Br)c(Br)c(Br)c(OCC(O)CN3CCN(c4ccc(F)cc4)CC3)c2O1 (stereo unspecified)	inactive	inactive	inactive	inactive	inactive	inactive	–	inactive	inactive	inactive	inactive	–	inactive	inactive	inactive	inactive	inactive	inactive
CC1(C)Cc2c(Br)c(Br)c(Br)c(OCC(O)CN3CCN(c4ccccc4)CC3)c2O1 (stereo unspecified)	–	–	–	–	–	–	31	–	–	–	–	> 31	–	–	–	–	–	–
